Measurements reported in publication PMC3985856 (Biochemistry, 2014).

Target: T1, BAL (benzaldehyde lyase) (Pseudomonas fluorescens, UniProt Q9F4L3)
T1 sequence (Q9F4L3 1-563): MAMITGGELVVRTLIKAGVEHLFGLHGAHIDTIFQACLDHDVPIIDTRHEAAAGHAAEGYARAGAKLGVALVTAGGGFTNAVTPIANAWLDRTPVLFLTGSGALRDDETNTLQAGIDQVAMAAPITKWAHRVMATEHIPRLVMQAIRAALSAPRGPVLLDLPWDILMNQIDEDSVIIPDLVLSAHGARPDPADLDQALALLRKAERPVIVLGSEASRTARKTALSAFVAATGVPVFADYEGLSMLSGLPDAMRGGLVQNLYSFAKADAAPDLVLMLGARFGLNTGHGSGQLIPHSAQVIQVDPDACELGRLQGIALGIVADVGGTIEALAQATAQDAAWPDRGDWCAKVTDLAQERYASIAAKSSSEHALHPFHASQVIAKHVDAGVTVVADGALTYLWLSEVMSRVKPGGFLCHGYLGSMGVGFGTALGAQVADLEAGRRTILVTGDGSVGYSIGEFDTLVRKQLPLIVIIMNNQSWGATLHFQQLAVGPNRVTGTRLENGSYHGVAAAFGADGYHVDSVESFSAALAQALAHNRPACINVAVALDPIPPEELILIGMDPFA
Test: CD titration, Hill fit
Type: binding
Settings: pH 8.0, 50 mM Tris, 0.2 mM ThDP, 1 mM MgCl2, 30 °C; covalent adduct with ThDP

Kd: 1100 µM
SMILES: O=C(O)C(=O)/C=C/c1ccc(Cl)cc1 [CPB, (E)-4-(4-chlorophenyl)-2-oxo-3-butenoic acid]
